Consider twelve molecules from ChEMBL document CHEMBL1201862, “PubChem BioAssay data set” (2004).

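Five compound concentrations were applied to cells in 96-well plates for 48 hours; endpoints were derived by simple linear interpolation of the resulting dose-response curve. Abbreviation: GI50, concentration required for 50% inhibition of growth.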 Activity calls are given as the source filed them. No stated cut-off is given here; in the data, active = GI50 up to about 1.1 µM and inactive = higher.

For orientation: GI50 means the concentration giving 50% growth inhibition.

Test systems include DU-145; HCC 2998; HCT-116; HL-60; K562; MCF7; MDA-MB-231; MOLT-4; NCI-H460; OVCAR-5; OVCAR-8; PC-3; SK-OV-3; SN12C; SR; T47D; U-251; UO-31; Hs-578T.
Common to all, as to assay: DTP human tumour cell line panel, 48 h

Take `O=C1c2c(O)cccc2Cc2cc(CO)cc(O)c21`: the GI50 in the test on DU-145 is 3.86 µM (inactive); with HCC 2998, 2.66 µM (inactive); with HCT-116 it was 2.31 µM (inactive); in the test with HL-60 it was 0.684 µM (active); with K562 it was 1.99 µM (inactive); with MCF7, 2.58 µM (inactive). Further, the GI50 in the test on MDA-MB-231 was 2.3 µM (inactive); in the test on MOLT-4 it was 2.96 µM (inactive); in the test with NCI-H460, 0.619 µM (active); in the test with OVCAR-5, 4.02 µM (inactive); in the test on OVCAR-8, 2.74 µM (inactive); in the test on PC-3 it was 1.08 µM (active). Besides, the GI50 in the test with SK-OV-3 was 3.19 µM (inactive); with SN12C, 3.38 µM (inactive); in the test with SR, 2.82 µM (inactive); in the test with T47D it was 2.96 µM (inactive); with U-251 it was 1.34 µM (inactive); with UO-31 it was 1.89 µM (inactive).
On to `COc1ccc(C2=NOC(N)(c3ccc(OC)cc3)C2)cc1` (stereo not drawn), for which the GI50 is > 100 µM (inactive) in the test with DU-145; > 100 µM (inactive) in the test on HCC 2998; > 100 µM (inactive) in the test on HCT-116; 38.2 µM (inactive) in the test on HL-60; 81.1 µM (inactive) with Hs-578T; > 100 µM (inactive) in the test with K562. The GI50 in the test with MCF7 is > 100 µM (inactive); in the test on MDA-MB-231, 81.5 µM (inactive); in the test with MOLT-4, > 100 µM (inactive); in the test on NCI-H460, > 100 µM (inactive); with OVCAR-5, > 100 µM (inactive); in the test on OVCAR-8 it was > 100 µM (inactive). In addition, the GI50 with PC-3, in the test on SK-OV-3, in the test on SN12C, with SR, in the test on U-251 and with UO-31 was > 100 µM (inactive) each time.
Take `O=C(Nc1ccccc1)c1cc(S(=O)(=O)Nc2n[nH]c(=O)[nH]2)c(SSc2cc(Cl)c(C(=O)Nc3ccccc3)cc2S(=O)(=O)Nc2n[nH]c(=O)[nH]2)cc1Cl`: the GI50 in the test on HCC 2998 was > 100 µM (inactive); in the test on HCT-116 it was > 100 µM (inactive); in the test on HL-60 it was > 100 µM (inactive); in the test with Hs-578T, > 100 µM (inactive); with K562, 55.5 µM (inactive); in the test on MCF7, > 100 µM (inactive). The GI50 in the test with MDA-MB-231, in the test on MOLT-4, with NCI-H460, in the test on OVCAR-5, with OVCAR-8 and in the test with PC-3 was > 100 µM (inactive) each time. Moreover, the GI50 in the test on SK-OV-3, in the test with SN12C, in the test on SR, in the test on U-251 and in the test on UO-31 was > 100 µM (inactive) in each case.
Consider `O=C1OC(c2ccc(Cl)c3ccccc23)c2ccccc21` (stereo not drawn), for which the GI50 is 91.2 µM (inactive) with HCC 2998; 91.2 µM (inactive) in the test on HCT-116; > 100 µM (inactive) with HL-60; 55.7 µM (inactive) in the test with K562; 77.6 µM (inactive) with MOLT-4; > 100 µM (inactive) in the test on NCI-H460. In addition, the GI50 in the test with OVCAR-5, with OVCAR-8, in the test on SK-OV-3, in the test with SN12C, in the test on SR and in the test with U-251 was > 100 µM (inactive) each time. For the same molecule, in the test with UO-31, the GI50 was > 100 µM (inactive).
Turning to `CC(C)(C)c1cc(COc2cc(COc3ccc(-c4c5c(nc6c4CCc4ccc(-c7c8ccccc8nc8ccccc78)cc4-6)-c4cc(-c6c7ccccc7nc7ccccc67)ccc4CC5)cc3)cc(OCc3cc(C(C)(C)C)cc(C(C)(C)C)c3)c2)cc(C(C)(C)C)c1`, the GI50 in the test on DU-145 is > 100 µM (inactive); in the test on HCC 2998, 80.5 µM (inactive); in the test with HCT-116 it was > 100 µM (inactive); in the test on K562 it was > 100 µM (inactive); with MCF7 it was > 100 µM (inactive); with MDA-MB-231, > 100 µM (inactive). The GI50 in the test with NCI-H460, in the test on OVCAR-5, with PC-3, in the test with SK-OV-3, with SN12C and with T47D was > 100 µM (inactive) each time. Also, the GI50 in the test on U-251 and with UO-31 was > 100 µM (inactive) in each case.
For the molecule `COc1cc(/C=C(\C#N)C(=O)c2ccccc2)ccc1O`, the GI50 was > 100 µM (inactive) in the test with HCC 2998; > 100 µM (inactive) in the test on HCT-116; 46.6 µM (inactive) in the test on HL-60; > 100 µM (inactive) with K562; > 100 µM (inactive) in the test with MOLT-4; > 100 µM (inactive) with NCI-H460. For the same molecule, the GI50 with OVCAR-5, in the test on OVCAR-8, with SK-OV-3, with SN12C, in the test on SR and in the test with U-251 was > 100 µM (inactive) in each case. In addition, the GI50 with UO-31 was > 100 µM (inactive).
In the case of `COc1ccc(/C=N/n2c(C)n[nH]c2=O)cc1`, the GI50 in the test on DU-145, in the test with HCC 2998, in the test on HCT-116, with K562, in the test on MCF7 and in the test on MDA-MB-231 was > 100 µM (inactive) each time. Moreover, the GI50 with MOLT-4, with NCI-H460, in the test on OVCAR-5, in the test with OVCAR-8, in the test on PC-3 and in the test on SK-OV-3 was > 100 µM (inactive) in each case. The GI50 in the test with SN12C, with T47D, in the test on U-251 and in the test on UO-31 was > 100 µM (inactive) throughout.
Take `O=C(Cc1nc2ccc(C(=O)c3ccccc3)cc2nc1O)C(=O)Nc1ccc(Br)cc1`: the GI50 with HCT-116 is 75.3 µM (inactive); in the test on HL-60, 69.7 µM (inactive); with Hs-578T it was 53 µM (inactive); in the test with K562 it was 49.2 µM (inactive); in the test with MCF7, > 100 µM (inactive); with MDA-MB-231 it was > 100 µM (inactive). Besides, the GI50 is > 100 µM (inactive) with NCI-H460; > 100 µM (inactive) in the test on OVCAR-5; 96.2 µM (inactive) in the test on OVCAR-8; 88.1 µM (inactive) with PC-3; > 100 µM (inactive) in the test on SK-OV-3; > 100 µM (inactive) in the test on SN12C. The GI50 with T47D was > 100 µM (inactive); in the test on U-251, > 100 µM (inactive); in the test with UO-31 it was 57.7 µM (inactive).
Turning to `COP(=O)(Cc1ccc(/C=C/C#N)o1)OC`, the GI50 was > 100 µM (inactive) with DU-145; > 100 µM (inactive) in the test with HCT-116; > 100 µM (inactive) in the test with HL-60; 62.2 µM (inactive) in the test on Hs-578T; > 100 µM (inactive) in the test with K562; > 100 µM (inactive) in the test on MCF7. Besides, the GI50 with MDA-MB-231, in the test with MOLT-4, in the test with NCI-H460, in the test on OVCAR-8, with SK-OV-3 and in the test with SR was > 100 µM (inactive) in each case. Further, the GI50 in the test on T47D and in the test on U-251 was > 100 µM (inactive) each time.
For the molecule `NNc1nc2ccccc2c(=O)n1NC(=O)C(=O)Nc1cccc(C(F)(F)F)c1`, the GI50 in the test on HCC 2998, in the test with HCT-116, with HL-60, in the test with Hs-578T, in the test with K562 and in the test with MCF7 was > 100 µM (inactive) throughout. For the same molecule, the GI50 in the test with MDA-MB-231, in the test on MOLT-4, in the test with NCI-H460, with OVCAR-5, in the test on OVCAR-8 and with PC-3 was > 100 µM (inactive) each time. Moreover, the GI50 in the test on SK-OV-3 is > 100 µM (inactive); with SN12C, > 100 µM (inactive); in the test on SR, > 10 µM (inactive); in the test with T47D, > 100 µM (inactive); in the test on U-251, > 100 µM (inactive); with UO-31, > 100 µM (inactive).
Regarding `C[C@H]1OC(=O)[C@@H]2N=NN(Cc3ccccc3)[C@H]12`, the GI50 with DU-145, with HCC 2998, in the test on HCT-116, in the test with K562, with MCF7 and with MDA-MB-231 was > 100 µM (inactive) in each case. Also, the GI50 in the test on MOLT-4, in the test with NCI-H460, in the test on OVCAR-5, in the test on OVCAR-8, in the test with PC-3 and with SK-OV-3 was > 100 µM (inactive) throughout. Further, the GI50 in the test on SN12C, in the test on SR, in the test on T47D, in the test with U-251 and in the test with UO-31 was > 100 µM (inactive) each time.
For `[N-]=[N+]=NC1=C(C(=O)c2ccccc2)C(=O)c2cccc3cccc1c23`, the GI50 is 72.1 µM (inactive) in the test with HCT-116; 20.7 µM (inactive) with Hs-578T; 54.5 µM (inactive) in the test with K562; 6.79 µM (inactive) with MCF7; 23.4 µM (inactive) in the test on MDA-MB-231; 23 µM (inactive) in the test on MOLT-4. For the same molecule, the GI50 was > 100 µM (inactive) in the test on OVCAR-5; 37 µM (inactive) in the test on OVCAR-8; 49.2 µM (inactive) in the test with PC-3; 26.6 µM (inactive) in the test on SK-OV-3; 63 µM (inactive) in the test with SN12C; 10.6 µM (inactive) with SR. In addition, the GI50 with T47D was 78.3 µM (inactive); in the test with U-251 it was 21.2 µM (inactive); with UO-31, 26.2 µM (inactive).
